Results reported in patent US12091425B2 (AMGEN INC., priority 2016, dated 2024).
pIC50: −log10 of the molar value. Like-named read-outs stand apart in the source and are kept apart here.

Legend:
[1] = target: T1, Mcl-1/Bim interaction, recombinant human Mcl-1 (171-327) (Homo sapiens, UniProt Q07820); assay: Cell free Mcl-1: Bim Affinity Assay (Mcl-1 HTRF); format: binding
T1 construct: made in house
Outline: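 Compounds were mixed with the protein and a biotinylated Bim peptide spanning human residues 51-76. Plates were left overnight, then TR-FRET signal was measured. A four-parameter sigmoidal model applied to duplicate competition data gave IC50.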

[2] = tested on: OPM-2 human multiple myeloma cell line; assay: Cell Viability Assay (OPM-2 10 FBS); format: cell-based; conditions: Homo sapiens, OPM-2, 16 h, OPM-2 cells, 16 h, CellTiter-Glo
Outline: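 ATP-based luminescence (CellTiter-Glo) measured after a 16 h compound treatment of OPM-2 cells seeded at 3000 cells/well in 10% FBS medium. IC50 values derived by 4-parameter logistic fitting of serial dilutions.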

[3] = TR-FRET, 0.1 nM Mcl-1 (171-327), 0.05 nM biotin-Bim (51-76)
[4] = cell free Mcl-1:Bim TR-FRET, recombinant human Mcl-1 (171-327)

T1 sequence (Q07820 171-327): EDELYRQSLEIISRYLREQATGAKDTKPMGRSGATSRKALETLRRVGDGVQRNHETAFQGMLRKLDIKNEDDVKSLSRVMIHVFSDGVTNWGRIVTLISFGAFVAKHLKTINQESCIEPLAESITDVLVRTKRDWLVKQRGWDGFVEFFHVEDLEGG

O=C1NS(=O)(=O)CC/C=C/[C@@H](O)[C@@H]2CC[C@H]2CN2C[C@@]3(CCCc4cc(Cl)ccc43)COc3ccc1cc32 [Example 221, (1S,3′R,6′R,7′R,8′E)-6-chloro-7′-hydroxy-3,4-dihydro-2H,14′H-spiro[naphthalene-1,21′-[19]oxa[12]thia[1,13]diazatetracyclo[13.7.2.0^3,6.0^18,23]tetracosa [8,15,17,23]tetraen]-14′-one 12′,12′-dioxide]
ring closure, isolated yield (from C=CCCS(=O)(=O)NC(=O)c1ccc2c(c1)N(C[C@@H]1CC[C@H]1[C@H](O)/C=C/CCC)C[C@@]1(CCCc3cc(Cl)ccc31)CO2, rcm bond, 15-membered ring, Hoveyda-Grubbs II (portionwise), AcOH, 5.2 mM): 48% | pIC50 [1, 3]: 7.96

C[C@@H]1CC/C=C/[C@H](O)[C@@H]2CC[C@H]2CN2C[C@@]3(CCCc4nc(Cl)ccc43)COc3ccc(cc32)C(=O)NS1(=O)=O [Example 791, (3R,6R,7S,8E,12R,22S)-2′-chloro-7-hydroxy-12-methyl-7′,8′-dihydro-6′H,15H-spiro[20-oxa-13-thia-1,14-diazatetracyclo [14.7.2.0^3,6.0^19,24]pentacosa-8,16,18,24-tetraene-22,5′-quinolin]-15-one 13,13-dioxide]
ring closure, isolated yield (from C=CCC[C@@H](C)S(=O)(=O)NC(=O)c1ccc2c(c1)N(C[C@@H]1CC[C@H]1[C@@H](O)/C=C/CCC)C[C@@]1(CCCc3nc(Cl)ccc31)CO2, rcm bond, 16-membered ring, Hoveyda-Grubbs II, AcOH, 1.98 mM): 40% | pIC50 [1, 4]: 8.21 | pIC50 [2]: 4.63

[(1S,3′R,6′R,7′S,8′Z,12′R)-12′-((2R)-2-((tert-butyl(diphenyl)silyl)oxy)propyl)-6-chloro-7′-hydroxy-3,4-dihydro-2h,15′h-spiro[naphthalene-1,22′-[20]oxa[13]thia[1,14]diazatetracyclo[14.7.2.0^3,6.0^19,24]pentacosa[8,16,18,24]tetraen]-15′-one 13′,13′-dioxide and (1S,3′R,6′R,7′S,8′E,12′R)-12′-((2R)-2-((tert-butyl(diphenyl)silyl)oxy)propyl)-6-chloro-7′-hydroxy-3,4-dihydro-2h,15′h-spiro[naphthalene-1,22′-[20]oxa[13]thia[1,14]diazatetracyclo[14.7.2.0^3,6.0^19,24]pentacosa[8,16,18,24]tetraen]-15′-one 13′,13′-dioxide] or [(1S,3′R,6′R,7′S,8′Z,12′S)-12′-((2R)-2-((tert-butyl(diphenyl)silyl)oxy)propyl)-6-chloro-7′-hydroxy-3,4-dihydro-2h,15′h-spiro[naphthalene-1,22′-[20]oxa[13]thia[1,14]diazatetracyclo[14.7.2.0^3,6.0^19,24]pentacosa[8,16,18,24]tetraen]-15′-one 13′,13′-dioxide and (1S,3′R,6′R,7′S,8′E,12′S)-12′-((2R)-2-((tert-butyl(diphenyl)silyl)oxy)propyl)-6-chloro-7′-hydroxy-3,4-dihydro-2h,15′h-spiro[naphthalene-1,22′-[20]oxa[13]thia[1,14]diazatetracyclo[14.7.2.0^3,6.0^19,24]pentacosa[8,16,18,24]tetraen]-15′-one 13′,13′-dioxide]
ring closure, isolated yield (rcm bond, 16-membered ring, Hoveyda-Grubbs II, DCM, 1.4 mM, 45.0 °C): 38% | ring closure, isolated yield (rcm bond, 16-membered ring, Hoveyda-Grubbs II, DCM, 1.51 mM, 45.0 °C): 52%

C[C@@H]1[C@H]2/C=C/[C@H](O)[C@@H]3CC[C@H]3CN3C[C@@]4(CCCc5cc(Cl)ccc54)COc4ccc(cc43)C(=O)NS(=O)(=O)[C@H]1CCC2
ring closure, isolated yield (from C[C@H]1[C@H](/C=C/[C@H](O)[C@@H]2CC[C@H]2CN2C[C@@]3(CCCc4cc(Cl)ccc43)COc3ccc(C(=O)O)cc32)CCC[C@H]1S(N)(=O)=O, amide bond, 16-membered ring, EDC/DMAP, DCM, 2.0 mM): 11.6%

C[C@@H]1[C@@H](C)C/C=C/[C@@H](O)[C@@H]2CC[C@H]2CN2C[C@@]3(CCCc4cc(Cl)ccc43)COc3ccc(cc32)C(=O)NS1(=O)=O
ring closure, isolated yield (from C=CC[C@H](C)[C@@H](C)S(=O)(=O)NC(=O)c1ccc2c(c1)N(C[C@@H]1CC[C@H]1[C@H](O)/C=C/CCC)C[C@@]1(CCCc3cc(Cl)ccc31)CO2, rcm bond, 16-membered ring, Hoveyda-Grubbs II (10 mol%), DCE, 1.87 mM, 80.0 °C): 12.9%

C[C@@H]1C/C=C/[C@H](O)[C@@H]2CC[C@H]2CN2C[C@@]3(CCCc4cc(Cl)ccc43)COc3ccc(cc32)C(=O)NS1(=O)=O [Example 758, (1S,3′R,6′R,7′S,8′E,11′R)-6-chloro-7′-hydroxy-11′-methyl-3,4-dihydro-2H,14′H-spiro[naphthalene-1,21′-[19]oxa[12]thia[1,13]diazatetracyclo[13.7.2.0^3,6.0^18,23]tetracosa[8,15,17,23]tetraen]-14′-one 12′,12′-dioxide]
ring closure, isolated yield (from C=CC[C@@H](C)S(=O)(=O)NC(=O)c1ccc2c(c1)N(C[C@@H]1CC[C@H]1[C@@H](O)C=C)C[C@@]1(CCCc3cc(Cl)ccc31)CO2, rcm bond, 15-membered ring, Hoveyda-Grubbs II, DCM, 2.65 mM, 7.0 h): 23.8% | pIC50 [1, 4]: 9.34 | pIC50 [2]: 5.93

C[C@H]1[C@@H]2/C=C/[C@H](O)[C@@H]3CC[C@H]3CN3C[C@@]4(CCCc5cc(Cl)ccc54)COc4ccc(cc43)C(=O)NS(=O)(=O)[C@@H]1CCC2 [Example 112, (1S,3′R,6′R,7′S,8′E,10′S,14′R,28′S)-6-chloro-7′-hydroxy-28′-methyl-3,4-dihydro-2H,17′H-spiro[naphthalene-1,24′-[22]oxa[15]thia[1,16]diazapentacyclo[16.7.2.1^10,14.0^3,6.0^21,26]octacosa[8,18,20,26]tetraen]-17′-one 15′,15′-dioxide]
ring closure, isolated yield (from C[C@H]1[C@H](/C=C/[C@H](O)[C@@H]2CC[C@H]2CN2C[C@@]3(CCCc4cc(Cl)ccc43)COc3ccc(C(=O)O)cc32)CCC[C@H]1S(N)(=O)=O, amide bond, 16-membered ring, EDC/DMAP, DCM, 2.0 mM, 16.0 h): 21% | pIC50 [1, 3]: 9.20 | pIC50 [2]: 6.76

C[C@H]1CC=CC[C@H](O)[C@@H]2CC[C@H]2CN2C[C@@]3(CCCc4cc(Cl)ccc43)COc3ccc(cc32)C(=O)NS(=O)(=O)[C@H]1C (single isomer, unassigned)
ring closure, isolated yield (from C=CC[C@H](C)[C@H](C)S(=O)(=O)NC(=O)c1ccc2c(c1)N(C[C@@H]1CC[C@H]1[C@@H](O)CC=C)C[C@@]1(CCCc3cc(Cl)ccc31)CO2, rcm bond, 17-membered ring, Hoveyda-Grubbs II (10 mol%), DCM, 1.6 mM, 45.0 °C): 25%

CC[C@@H]1CC/C=C/C[C@H](O)[C@@H]2CC[C@H]2CN2C[C@@]3(CCCc4cc(Cl)ccc43)COc3ccc(cc32)C(=O)NS1(=O)=O [Example 553, (1S,3′R,6′R,7′S,9′E,13′R)-6-chloro-13′-ethyl-7′-hydroxy-3,4-dihydro-2H,16′H-spiro[naphthalene-1,23′-[21]oxa[14]thia[1,15]diazatetracyclo[15.7.2.0^3,6.0^20,25]hexacosa[9,17,19,25]tetraen]-16′-one 14′,14′-dioxide]
ring closure, isolated yield (from C=CCC[C@@H](CC)S(=O)(=O)NC(=O)c1ccc2c(c1)N(C[C@@H]1CC[C@H]1[C@@H](O)CC=C)C[C@@]1(CCCc3cc(Cl)ccc31)CO2, rcm bond, 17-membered ring, Hoveyda-Grubbs II (10 mol%), DCM, 1.4 mM, 45.0 °C, 6.0 h): 38% | pIC50 [1, 4]: 8.40

COc1ccc(CN2CC=CCS(=O)(=O)NC(=O)c3ccc4c(c3)N(C[C@@H]3CC[C@H]3C2=O)C[C@@]2(CCCc3cc(Cl)ccc32)CO4)cc1 (single isomer, unassigned)
ring closure, isolated yield (from C=CCN(Cc1ccc(OC)cc1)C(=O)[C@@H]1CC[C@H]1CN1C[C@@]2(CCCc3cc(Cl)ccc32)COc2ccc(C(=O)NS(=O)(=O)CC=C)cc21, rcm bond, 16-membered ring, Hoveyda-Grubbs II, toluene, 1.0 mM, 110.0 °C, 1.5 h): 51%

(1S,3′R,6′R,7′S,8′E,12′R)-12′-((2S)-2-((tert-butyl(diphenyl)silyl)oxy)propyl)-6-chloro-7′-hydroxy-3,4-dihydro-2h,15′h-spiro[naphthalene-1,22′-[20]oxa[13]thia[1,14]diazatetracyclo[14.7.2.0^3,6.0^19,24]pentacosa[8,16,18,24]tetraen]-15′-one 13′,13′-dioxide] or (1S,3′R,6′R,7′S,8′E,12′S)-12′-((2S)-2-((tert-butyl(diphenyl)silyl)oxy)propyl)-6-chloro-7′-hydroxy-3,4-dihydro-2h,15′h-spiro[naphthalene-1,22′-[20]oxa[13]thia[1,14]diazatetracyclo[14.7.2.0^3,6.0^19,24]pentacosa[8,16,18,24]tetraen]-15′-one 13′,13′-dioxide
ring closure, isolated yield (rcm bond, 16-membered ring, Hoveyda-Grubbs II (20 mol%), DCM, 1.5 mM, 45.0 °C): 27%

O=C1NS(=O)(=O)NCCC=C[C@H](O)[C@@H]2CC[C@H]2CN2C[C@@]3(CCCc4cc(Cl)ccc43)COc3ccc1cc32
ring closure, isolated yield (from C=CCCNS(=O)(=O)NC(=O)c1ccc2c(c1)N(C[C@@H]1CC[C@H]1[C@@H](O)C=C)C[C@@]1(CCCc3cc(Cl)ccc31)CO2, rcm bond, 16-membered ring, Hoveyda-Grubbs II, 1,1-dichloroethane, 1.5 mM, 50.0 °C, 24.0 h): 61%

CC(C)(C)[Si](C)(C)OC[C@H]1CC=CC[C@H](O)[C@@H]2CC[C@H]2CN2C[C@@]3(CCCc4cc(Cl)ccc43)COc3ccc(cc32)C(=O)NS1(=O)=O
ring closure, isolated yield (from C=CC[C@H](CO[Si](C)(C)C(C)(C)C)S(=O)(=O)NC(=O)c1ccc2c(c1)N(C[C@@H]1CC[C@H]1[C@@H](O)CC=C)C[C@@]1(CCCc3cc(Cl)ccc31)CO2, rcm bond, 16-membered ring, Hoveyda-Grubbs II (20 mol%), toluene, 0.72 mM, 106.0 °C, 2.0 h): 85.9%

O=C1NS(=O)(=O)[C@@H]2C[C@H]2C/C=C/[C@H](O)[C@@H]2CC[C@H]2CN2C[C@@]3(CCCc4cc(Cl)ccc43)COc3ccc1cc32
ring closure, isolated yield (from C=CCC1C[C@H]1S(=O)(=O)NC(=O)c1ccc2c(c1)N(C[C@@H]1CC[C@H]1[C@@H](O)C=C)C[C@@]1(CCCc3cc(Cl)ccc31)CO2, rcm bond, 16-membered ring, Hoveyda-Grubbs II, AcOH, 0.915 mM, 36.0 h): 55%
